# Legend:
# Solubility in solvents = format: physicochemical; conditions: solvents as named
# Method: {[Cu(3,6,9-tdda)(phen)2].3H2O.EtOH}n (7). Step (i): Copper(II) acetate hydrate (1.50 g; 7.51 mmol) was dissolved in ethanol (50 mL) and the solution was added to an ethanolic solution (25 mL) of 3,6,9-trioxaundecanedioic acid (3,6,9-tddaH2) (2.84 g; […]). The light-green suspension was refluxed for 1 h, and after cooling to room temperature the light-green solid, [Cu(3,6,9-tdda)].H2O, was filtered off, washed with cold ethanol and air dried. Yield: 1.88 g (82.97%). % Calculated: C: 31.84, H: 4.68. % Found: C: 32.20, H: 4.60. […] Step (ii): [Cu(3,6,9-tdda)].H2O (1.00 g; 3.31 mmol) and phen (2.39 g; 13.26 mmol) were dissolved together in ethanol (50 mL) and the resulting dark-green mixture was refluxed for 2 h. The suspension was cooled and the green solid, {[Cu(3,6,9-tdda)(phen)2]3H2O.EtOH}n(7), was filtered off, washed with cold ethanol and air dried. Yield: 1.63 g (66.09%). % Calculated: C: 54.87, H: 5.42, N: 7.53. % Found: C: 54.65, H: 5.63, N: 7.39.
# [Ag2(3,6,9-tdda)(phen)4].EtOH (16). Step (i): Silver(I) acetate (3.00 g; 17.97 mmol) was dissolved in ethanol (30 mL) and the solution was added to an ethanolic solution (25 mL) of 3,6,9-trioxaundecanedioic acid (3,6,9-tddaH2) (2.84 g; 8.95 mmol) and the orange-brown suspension refluxed for 3 h. […] Green [Ag2(3,6,9-tdda)(phen)4].EtOH (16) precipitated and was filtered off, washed with cold ethanol and air dried. Yield: 0.83 g (65.10%). % Calculated: C: 57.92, H: 4.19, N: 9.32. % Found: C: 57.75, H: […], N: 9.02. IR (KBr) νmax: 3380, 3046, 2905, 1978, 1804, 1618, 1585, 1509, 1421, 1322, 1263, 1215, 1121, 1077, 1018, 932, 890, 838, 726, 621, 465, 413 cm^−1. ^1H NMR (500 MHz, DMSO-d6, 313 K, TMS) δ = 9.12(8H, s), 8.63 (8H, d), 8.08 (8H, s), 7.91 (8H, dd), 3.74 (4H, s), 3.57 (8H, dd). ^13C NMR (125 MHz, DMSO-d6, 313 K, TMS) δ = 173.41, 151.28, 143.57, 138.03, 129.24, 127.37, 124.74, 71.44, 70.42, 69.74.
# Candida haemulonii [1] = assay: Biofilm-growing cells, XTT assay, bMIC; format: cell-based; conditions: for bMIC: mature biofilm, 48 h, 50% inhibition of metabolic activity
# How it was run: (§1)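 Biofilms were grown from 10^6 yeast cells in Sabouraud-dextrose broth for 48 h at 37°C, washed three times with PBS pH 7.2, then exposed to compounds (same concentrations as planktonic assays) for another 48 h at 37°C. Metabolic activity was read by XTT reduction; bMIC is the lowest concentration giving 50% inhibition versus compound-free wells.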
# Candida duobushaemulonii [2] = assay: Biofilm-growing cells, XTT assay, bMIC; format: cell-based; conditions: for bMIC: mature biofilm, 48 h, 50% inhibition of metabolic activity
# How it was run: as §1
# [3] = system: Candida haemulonii var. vulnera; assay: Biofilm-growing cells, XTT assay, bMIC; format: cell-based; conditions: for bMIC: mature biofilm, 48 h, 50% inhibition of metabolic activity
# How it was run: as §1
# Candida haemulonii [4] = assay: Planktonic growth, broth microdilution (CLSI M27-A3), MIC; format: cell-based; conditions: for MIC: planktonic, 48 h, 37°C
# How it was run: (§2)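 Following CLSI M27-A3, compounds were serially diluted in RPMI 1640 (0.0625-32 mg/L) and incubated with isolates at 37°C for 48 h. Visual reading gave the MIC as the lowest growth-free concentration, and MICs were pooled as a geometric mean over isolates; inocula came from 48 h Sabouraud-dextrose cultures.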
# Candida duobushaemulonii [5] = assay: as above; format: cell-based; conditions: for MIC: planktonic, 48 h, 37°C
# How it was run: as §2
# [6] = system: Candida haemulonii var. vulnera; assay: as above; format: cell-based; conditions: for MIC: planktonic, 48 h, 37°C
# How it was run: as §2
# [7] = system: Candida haemulonii complex; assay: Biofilm-growing cells, overall across isolates; format: cell-based; conditions: for Overall GM-bMIC: geometric mean across strains, values marked * do not include LIP Ch4 (>512)
# How it was run: as §1
# C. haemulonii complex = assay: Planktonic growth, overall across all nine isolates; format: cell-based, Candida haemulonii complex; conditions: geometric mean across all nine strains
# How it was run: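 Three clinical isolates per species (nail, blood, urine origin), grown in Sabouraud-dextrose 48 h at 37°C, were tested by CLSI M27-A3 broth microdilution in RPMI 1640 over 0.0625-32 mg/L. After 48 h at 37°C, MIC was the lowest concentration with no visible growth; the across-isolate value is a geometric mean MIC.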
# A549 cells = assay: Mammalian cell toxicity (MTT assay) and selectivity index; format: cell-based, Human; conditions: MTT, 48 h incubation
# How it was run: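 A549 cells were exposed to compounds (0.0313–512 μg/mL) in DMEM for 48 h at 37 °C, 5% CO2. Viability was measured by MTT (3 h, dark), with formazan dissolved in DMSO and read at 450 nm. CC50 was derived, and SI calculated as A549 CC50 divided by C. haemulonii complex GM-MIC.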
structure (smiles),measurement,setting,value
"O.O.O=C([O-])COCCOCCOCC(=O)[O-].[Ag+].[Ag+] [[Ag2(3,6,9-tdda].2H2O]",Solubility,Solubility in solvents,soluble in hot H2O and hot DMSO
"O.O=C([O-])COCCOCCOCC(=O)[O-].[Cu+2] [[Cu(3,6,9-tdda)].H2O]",Solubility,Solubility in solvents,"soluble in H2O, MeOH, EtOH and insoluble in CHCl3, ethyl acetate and acetone"
"O.O.O.O=C([O-])CCCCCCCCCC(=O)[O-].[Ag+].[Ag+].c1cnc2c(c1)ccc1cccnc12.c1cnc2c(c1)ccc1cccnc12.c1cnc2c(c1)ccc1cccnc12 [compound 18, [Ag2(phen)3(udda)].3H2O]",GM-bMIC,"Candida haemulonii [1]; geometric mean, C. haemulonii isolates, values marked * do not include LIP Ch4 (>512)",16 mg/L
same,bMIC,Candida haemulonii [1]; isolate LIP Ch4,32 mg/L
same,bMIC,Candida haemulonii [1]; isolate LIP Ch7,8 mg/L
same,bMIC,Candida haemulonii [1]; isolate LIP Ch14,16 mg/L
same,GM-bMIC,"Candida duobushaemulonii [2]; geometric mean, C. duobushaemulonii isolates",10.08 mg/L
same,bMIC,Candida duobushaemulonii [2]; isolate LIP Ch1,16 mg/L
same,bMIC,Candida duobushaemulonii [2]; isolate LIP Ch6,8 mg/L
same,bMIC,Candida duobushaemulonii [2]; isolate LIP Ch8,8 mg/L
same,GM-bMIC,"[3]; geometric mean, C. haemulonii var. vulnera isolates",11.31 mg/L
same,bMIC,[3]; isolate LIP Ch5,8 mg/L
same,bMIC,[3]; isolate LIP Ch9,0.5 mg/L
same,bMIC,[3]; isolate LIP Ch13,16 mg/L
same,GM-MIC,Candida haemulonii [4]; geometric mean of three C. haemulonii isolates,0.16 µg/mL
same,MIC,Candida haemulonii [4]; isolate LIP Ch4,0.125 µg/mL
same,MIC,Candida haemulonii [4]; isolate LIP Ch7,0.25 µg/mL
same,MIC,Candida haemulonii [4]; isolate LIP Ch12,0.125 µg/mL
same,GM-MIC,Candida duobushaemulonii [5]; geometric mean of three C. duobushaemulonii isolates,0.5 µg/mL
same,MIC,Candida duobushaemulonii [5]; isolate LIP Ch1,0.5 µg/mL
same,MIC,Candida duobushaemulonii [5]; isolate LIP Ch6,0.25 µg/mL
same,MIC,Candida duobushaemulonii [5]; isolate LIP Ch8,1 µg/mL
same,GM-MIC,[6]; geometric mean of three C. haemulonii var. vulnera isolates,0.25 µg/mL
same,MIC,[6]; isolate LIP Ch5,0.5 µg/mL
same,MIC,[6]; isolate LIP Ch9,0.125 µg/mL
same,MIC,[6]; isolate LIP Ch11,0.25 µg/mL
same,decrease in activity on going from planktonic to biofilm cells,[7]; biofilm MIC versus planktonic MIC,46.3 fold
same,Overall GM-bMIC,[7]; in μM,12.04 µM
same,Overall GM-bMIC,[7],12.34 mg/L
same,Overall GM-MIC,C. haemulonii complex,0.27 µg/mL
same,MIC,"C. haemulonii complex; in μM, read-out: Overall GM-MIC",0.26 µM
same,A549 (CC50),A549 cells,13.63 µg/mL

# From publication PMC5504357, “Antifungal Potential of Copper(II), Manganese(II) and Silver(I) 1,10-Phenanthroline Chelates Against Multidrug-Resistant Fungal Species Forming the Candida haemulonii Complex: Impact on the Planktonic and Biofilm Lifestyles” (Frontiers in Microbiology, 2017)
